Source: ChEMBL document CHEMBL3259580, “New compounds from acid hydrolyzed products of the fruits of Momordica charantia L. and their inhibitory activity against protein tyrosine phosphatas 1B” (Eur J Med Chem, 2014)

How the values were obtained:
[1] = target: T1, Tyrosine-protein phosphatase non-receptor type 1 (Homo sapiens) (UniProt P18031); assay: Inhibition of PTP1B (unknown origin) using para-nitro phenyl phosphate as substrate at 30 uM after 30 mins
T1 sequence (whole entry): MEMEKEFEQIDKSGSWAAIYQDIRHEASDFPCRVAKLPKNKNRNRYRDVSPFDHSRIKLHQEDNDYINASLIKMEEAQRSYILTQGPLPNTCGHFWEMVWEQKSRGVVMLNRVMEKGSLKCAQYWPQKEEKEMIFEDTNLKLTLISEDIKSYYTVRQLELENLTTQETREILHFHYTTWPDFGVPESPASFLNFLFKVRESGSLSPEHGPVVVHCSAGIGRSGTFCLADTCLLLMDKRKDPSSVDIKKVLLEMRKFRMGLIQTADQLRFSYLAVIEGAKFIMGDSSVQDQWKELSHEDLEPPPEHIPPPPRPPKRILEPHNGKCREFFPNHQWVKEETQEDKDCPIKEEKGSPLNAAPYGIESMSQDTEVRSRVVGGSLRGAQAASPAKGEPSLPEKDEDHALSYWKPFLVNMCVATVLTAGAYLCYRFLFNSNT

[2] = target: T1, Tyrosine-protein phosphatase non-receptor type 1 (Homo sapiens); assay: Inhibition of PTP1B (unknown origin) using para-nitro phenyl phosphate as substrate at 10 uM after 30 mins
[3] = target: Tyrosine-protein phosphatase non-receptor type 1 (Homo sapiens) (UniProt P18031); assay: Inhibition of PTP1B (unknown origin) using para-nitro phenyl phosphate as substrate at 20 uM after 30 mins

Compound	inhibition [1] [%]	inhibition [2] [%]	inhibition [3] [%]
CO[C@@H]1O[C@]23C=C[C@@H]4[C@@]1(CC[C@]1(C)[C@@H]([C@H](C)C/C=C/C(C)(C)OC)CC[C@@]41C)[C@@H]2CC[C@H](O)C3(C)C	37	22	–
CO[C@H]1O[C@]23C=C[C@@H]4[C@@]1(CC[C@]1(C)[C@@H]([C@H](C)C[C@H](C=C(C)C)OC)CC[C@@]41C)[C@@H]2CC[C@H](O)C3(C)C	62	32	–
C[C@H](C/C=C/C(C)(C)O)[C@H]1CC[C@@]2(C)[C@@H]3[C@@H](O)C=C4[C@@H](CC[C@H](O)C4(C)C)[C@]3(C=O)CC[C@]12C	–	-5	–
CO[C@H]1O[C@@]23C=C[C@@H]4[C@]1(CC[C@@]1(C)[C@@H]([C@@H](C)C[C@H](C=C(C)C)OC)CC[C@]41C)[C@@H]2CC[C@H](O)C3(C)C	77	57	–
CO[C@@H]1O[C@]23C=C[C@@H]4[C@@]1(CC[C@]1(C)[C@@H]([C@H](C)C/C=C/C(C)(C)O)CC[C@@]41C)[C@@H]2CC[C@H](O)C3(C)C	–	-7	–
CO[C@@H]1O[C@@]23C=C[C@@H]4[C@]1(CC[C@@]1(C)[C@@H]([C@@H](C)C[C@H](C=C(C)C)OC)CC[C@]41C)[C@@H]2CC[C@H](O)C3(C)C	62	44	–
C=C(C)/C=C/C[C@@H](C)[C@H]1CC[C@@]2(C)[C@@H]3C=C[C@@]45O[C@@H](O)[C@]3(CC[C@]12C)[C@@H]4CC[C@H](O)C5(C)C	68	44	–
SODIUM ORTHOVANAD	–	–	44
C=C(C)/C=C/C[C@@H](C)[C@H]1CC[C@@]2(C)[C@@H]3C=C[C@@]45O[C@@H](OC)[C@]3(CC[C@]12C)[C@@H]4CC[C@H](O)C5(C)C	60	41	–
C[C@H](C/C=C/C(C)(C)O)[C@H]1CC[C@@]2(C)[C@@H]3C=C[C@@]45OC[C@]3(CC[C@]12C)[C@@H]4CC[C@H](O)C5(C)C	52	30	–
CO[C@@H]1O[C@]23C=C[C@@H]4[C@@]1(CC[C@]1(C)[C@@H]([C@H](C)C[C@H](C=C(C)C)OC)CC[C@@]41C)[C@@H]2CC[C@H](O)C3(C)C	40	32	–
